From patent US20250197374A1, “WEE1 DEGRADING COMPOUNDS AND USES THEREOF” (BRISTOL-MYERS SQUIBB COMPANY, priority 2023, published 2025)
pEC50: −log10 of the molar value. Like-named read-outs stand apart in the source and are kept apart here.

Tests used:
Type in all cases: cell-based
WEE1 = target: T1, WEE1 (Homo sapiens, UniProt P30291+Q96SW2); assay: WEE1-ePL degradation assay (293T-LentiX, InCELL Hunter luminescence, 4 hr); settings: for DC50: LentiX-HEK293T cells expressing WEE1-ePL, 4 hr incubation, read-out: 293T-LentiX WEE1-ePL Degradation 4 hr EC50; for 293T-LentiX WEE1-ePL Degradation 4 hr YMin (%): lower limit of fit, % of DMSO control signal remaining
T1 construct: C-terminal ePL-tagged (DiscoverX, Fremont, CA) full-length WEE1 expression construct; expressed in transfected cells; host or cells: LentiX-HEK293T (Invitrogen), lentivirally transduced; the cells also over-express GSPT1-GN
T1 sequence (P30291 whole entry): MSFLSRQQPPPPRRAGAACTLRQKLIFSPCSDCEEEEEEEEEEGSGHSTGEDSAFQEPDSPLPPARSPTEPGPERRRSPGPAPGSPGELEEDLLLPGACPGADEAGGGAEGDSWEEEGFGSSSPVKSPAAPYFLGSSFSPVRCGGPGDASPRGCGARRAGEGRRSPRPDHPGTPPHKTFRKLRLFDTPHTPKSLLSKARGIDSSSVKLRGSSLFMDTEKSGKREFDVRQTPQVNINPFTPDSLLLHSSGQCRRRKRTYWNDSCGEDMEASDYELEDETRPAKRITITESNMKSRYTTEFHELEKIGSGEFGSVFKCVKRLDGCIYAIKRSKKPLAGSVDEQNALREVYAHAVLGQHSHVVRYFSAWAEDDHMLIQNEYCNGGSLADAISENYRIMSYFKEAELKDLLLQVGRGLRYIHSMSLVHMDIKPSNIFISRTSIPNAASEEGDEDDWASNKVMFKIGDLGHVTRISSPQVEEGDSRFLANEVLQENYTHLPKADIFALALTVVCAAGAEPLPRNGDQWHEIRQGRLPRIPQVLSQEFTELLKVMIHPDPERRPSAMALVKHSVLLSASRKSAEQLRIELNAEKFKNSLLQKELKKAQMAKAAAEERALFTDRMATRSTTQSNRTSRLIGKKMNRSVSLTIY
T1 sequence (Q96SW2 whole entry): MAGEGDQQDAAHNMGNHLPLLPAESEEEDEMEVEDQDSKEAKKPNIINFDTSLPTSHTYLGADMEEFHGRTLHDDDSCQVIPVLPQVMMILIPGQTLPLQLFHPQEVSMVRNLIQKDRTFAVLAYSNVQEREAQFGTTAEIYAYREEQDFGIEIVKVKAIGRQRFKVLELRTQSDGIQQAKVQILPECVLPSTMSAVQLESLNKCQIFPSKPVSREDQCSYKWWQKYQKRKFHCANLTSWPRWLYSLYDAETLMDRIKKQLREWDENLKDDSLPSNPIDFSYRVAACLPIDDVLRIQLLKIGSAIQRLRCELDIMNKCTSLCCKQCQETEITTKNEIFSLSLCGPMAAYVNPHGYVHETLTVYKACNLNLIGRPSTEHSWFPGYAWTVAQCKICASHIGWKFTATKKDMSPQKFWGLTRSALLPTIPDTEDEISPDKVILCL
T1 sequence (Q16531 whole entry partner): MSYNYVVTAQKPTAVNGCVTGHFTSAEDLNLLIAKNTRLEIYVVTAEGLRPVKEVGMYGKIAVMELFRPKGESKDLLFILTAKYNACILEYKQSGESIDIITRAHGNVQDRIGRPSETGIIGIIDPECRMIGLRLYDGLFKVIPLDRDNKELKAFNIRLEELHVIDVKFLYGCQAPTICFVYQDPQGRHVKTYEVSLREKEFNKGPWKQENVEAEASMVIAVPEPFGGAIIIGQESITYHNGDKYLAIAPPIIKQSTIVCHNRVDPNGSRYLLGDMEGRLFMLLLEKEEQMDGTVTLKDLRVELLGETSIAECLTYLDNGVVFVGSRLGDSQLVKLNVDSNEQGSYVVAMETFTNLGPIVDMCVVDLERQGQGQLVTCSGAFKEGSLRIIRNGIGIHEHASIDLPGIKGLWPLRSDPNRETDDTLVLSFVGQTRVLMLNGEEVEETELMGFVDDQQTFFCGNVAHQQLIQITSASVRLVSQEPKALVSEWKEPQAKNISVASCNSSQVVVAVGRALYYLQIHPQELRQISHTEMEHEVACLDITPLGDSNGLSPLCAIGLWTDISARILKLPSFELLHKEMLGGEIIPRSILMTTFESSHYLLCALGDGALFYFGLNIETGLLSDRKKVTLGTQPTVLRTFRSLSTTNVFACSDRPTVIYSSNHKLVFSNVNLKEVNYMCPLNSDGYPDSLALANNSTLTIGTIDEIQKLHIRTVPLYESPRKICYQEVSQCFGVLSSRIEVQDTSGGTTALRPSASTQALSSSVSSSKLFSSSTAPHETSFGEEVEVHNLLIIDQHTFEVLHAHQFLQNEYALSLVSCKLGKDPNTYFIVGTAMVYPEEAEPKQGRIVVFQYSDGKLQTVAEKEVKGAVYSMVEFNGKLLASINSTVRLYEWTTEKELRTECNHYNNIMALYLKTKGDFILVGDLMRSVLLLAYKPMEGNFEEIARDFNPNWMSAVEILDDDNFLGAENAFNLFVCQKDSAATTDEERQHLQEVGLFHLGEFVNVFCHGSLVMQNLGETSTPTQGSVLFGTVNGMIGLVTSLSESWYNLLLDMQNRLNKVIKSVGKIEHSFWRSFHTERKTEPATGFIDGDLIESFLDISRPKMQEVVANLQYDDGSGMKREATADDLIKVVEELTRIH
Procedure, shortened: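 LentiX-HEK293T cells expressing C-terminally ePL-tagged full-length WEE1 plus non-degradable GSPT1-GN (G575N, N-terminal 158 aa truncated). Treated 4 h at 37 °C with a 10-point, 3-fold series from 1 or 10 µM, then read by InCELL Hunter luminescence. EC50 from four-parameter logistic fit, Ymax set by DMSO control.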

MKN45 cells = assay: MKN45 cell proliferation assay (Cell-Titer-Glo, 120 hr); settings: for pEC50: read-out: MKN45 Cell Prolif. 120 hr EC50; for MKN45 Cell Prolif. 120 hr YMin (%): minimal percent of DMSO control observed
Procedure, shortened: (§1)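 MKN45 (400/well) and MDA-MB-231 (800/well) cells in RPMI with 10% FBS were exposed to 10-point half-log doses from 1 or 10 uM (0.1% DMSO) for 120 h at 37 °C. Viability was read by CellTiter-Glo luminescence. EC50 came from blank-subtracted, %DMSO four-parameter fits, with Ymin-obs as the lowest %DMSO observed.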

MDA-MB-231 cells = assay: MDA-MB-231 cell proliferation assay (Cell-Titer-Glo, 120 hr); settings: for pEC50: read-out: MDA-MB 231 Cell Prolif. 120 hr EC50; for MDA-MB 231 Cell Prolif. 120 hr YMin (%): minimal percent of DMSO control observed
Procedure, shortened: as §1

[1] = Homo sapiens, MDA-MB-231, 120 h

Compound	DC50 (WEE1) [nM]	293T-LentiX WEE1-ePL Degradation 4 hr YMin (%) (WEE1)	pEC50 (MKN45 cells; Homo sapiens, MKN-45, 120 h)	MKN45 Cell Prolif. 120 hr YMin (%) (MKN45 cells)	pEC50 (MDA-MB-231 cells; [1])	MDA-MB 231 Cell Prolif. 120 hr YMin (%) (MDA-MB-231 cells)	pEC50 (MKN45 cells)	pEC50 (MDA-MB-231 cells)
COC[C@@H]1CN(Cc2cc(F)c3nc(N4CCC(OC)C4)ccc3c2)C[C@H]1Oc1ccc2c(c1)CN([C@H]1CCC(=O)NC1=O)C2=O (single isomer, unassigned) [Example 97, (S)-3-(5-(((3S,4S)-1-((8-fluoro-2-((R*)-3-methoxypyrrolidin-1-yl)quinolin-6-yl)methyl)-4-(methoxymethyl)pyrrolidin-3-yl)oxy)-1-oxoisoindolin-2-yl)piperidine-2,6-dione]	1	29.8	9.00	8.7	7.66	22.0		
COC[C@@H]1CN(Cc2cc(F)c3nc(N4CCC(OC)C4)ccc3c2)C[C@H]1Oc1ccc2c(c1)CN([C@H]1CCC(=O)NC1=O)C2=O (single isomer, unassigned) [Example 98, (S)-3-(5-(((3S,4S)-1-((8-fluoro-2-((S*)-3-methoxypyrrolidin-1-yl)quinolin-6-yl)methyl)-4-(methoxymethyl)pyrrolidin-3-yl)oxy)-1-oxoisoindolin-2-yl)piperidine-2,6-dione]	1	29.4		9.0		25.1	9.00	7.89
COC[C@@H]1CN(Cc2cc(F)c3c(ccn3C(=O)C3CCOCC3)c2)C[C@H]1Oc1ccc2c(c1)CN([C@H]1CCC(=O)NC1=O)C2=O [Example 24, (3S)-3-(5-{[(3S,4S)-1-{[7-fluoro-1-(oxane-4-carbonyl)-1H-indol-5-yl]methyl}-4-(methoxymethyl)pyrrolidin-3-yl]oxy}-1-oxo-2,3-dihydro-1H-isoindol-2-yl)piperidine-2,6-dione]	5	37.7	7.30	49.1	7.17	87.7		
COC[C@@H]1CN(Cc2ccc3c(ccn3C(=O)C3CCOCC3)c2)C[C@H]1Oc1ccc2c(c1)CN([C@H]1CCC(=O)NC1=O)C2=O [Example 25, (3S)-3-(5-{[(3S,4S)-4-(methoxymethyl)-1-{[1-(oxane-4-carbonyl)-1H-indol-5-yl]methyl}pyrrolidin-3-yl]oxy}-1-oxo-2,3-dihydro-1H-isoindol-2-yl)piperidine-2,6-dione]	2	39.0	7.46	25.4	6.89	80.7		
COC[C@@H]1CN(Cc2cc3ccc(N4CCOCC4)cc3cn2)C[C@H]1Oc1ccc2c(c1)CN([C@H]1CCC(=O)NC1=O)C2=O [Example 28, (3S)-3-(5-{[(3S,4S)-4-(methoxymethyl)-1-{[7-(morpholin-4-yl)isoquinolin-3-yl]methyl}pyrrolidin-3-yl]oxy}-1-oxo-2,3-dihydro-1H-isoindol-2-yl)piperidine-2,6-dione]	1	29.1	9.00	11.2	7.32	22.1		
COC[C@@H]1CN(Cc2ccc3ncc(N4CCOCC4)cc3c2)C[C@H]1Oc1ccc2c(c1)CN([C@H]1CCC(=O)NC1=O)C2=O [Example 29, (3S)-3-(5-{[(3S,4S)-4-(methoxymethyl)-1-{[3-(morpholin-4-yl)quinolin-6-yl]methyl}pyrrolidin-3-yl]oxy}-1-oxo-2,3-dihydro-1H-isoindol-2-yl)piperidine-2,6-dione]	1	26.4	8.70	8.8	7.60	17.8		
COC[C@@H]1CN(Cc2cc(F)c3ncc(N4CCOCC4)cc3c2)C[C@H]1Oc1ccc2c(c1)CN([C@H]1CCC(=O)NC1=O)C2=O [Example 30, (S)-3-(5-(((3S,4S)-1-((8-fluoro-3-morpholinoquinolin-6-yl)methyl)-4-(methoxymethyl)pyrrolidin-3-yl)oxy)-1-oxoisoindolin-2-yl)piperidine-2,6-dione]	1	27.9	9.00	7.8	7.85	12.7		
COC[C@@H]1CN(Cc2cc(F)c3nc(C(C)(C)O)ccc3c2)C[C@H]1Oc1ccc2c(c1)CN([C@H]1CCC(=O)NC1=O)C2=O [Example 32, (3S)-3-(5-{[(3S,4S)-1-{[8-fluoro-2-(2-hydroxypropan-2-yl)quinolin-6-yl]methyl}-4-(methoxymethyl)pyrrolidin-3-yl]oxy}-1-oxo-2,3-dihydro-1H-isoindol-2-yl)piperidine-2,6-dione]	1	33.4	8.70	11.2	7.17	46.8		
COC[C@@H]1CN(Cc2cc(F)c3nc(COC4CCOCC4)ccc3c2)C[C@H]1Oc1ccc2c(c1)CN([C@H]1CCC(=O)NC1=O)C2=O [Example 33, (3S)-3-(5-{[(3S,4S)-1-({8-fluoro-2-[(oxan-4-yloxy)methyl]quinolin-6-yl}methyl)-4-(methoxymethyl)pyrrolidin-3-yl]oxy}-1-oxo-2,3-dihydro-1H-isoindol-2-yl)piperidine-2,6-dione]	1	29.3	9.00	9.7	7.55	28.6		
COC[C@@H]1CN(Cc2cc(F)c3nc(COC4CCN(C)CC4)ccc3c2)C[C@H]1Oc1ccc2c(c1)CN([C@H]1CCC(=O)NC1=O)C2=O [Example 34, (3S)-3-(5-{[(3S,4S)-1-[(8-fluoro-2-{[(1-methylpiperidin-4-yl)oxy]methyl}quinolin-6-yl)methyl]-4-(methoxymethyl)pyrrolidin-3-yl]oxy}-1-oxo-2,3-dihydro-1H-isoindol-2-yl)piperidine-2,6-dione]	4	21.8	8.40	6.9	6.97	30.7		
COC[C@@H]1CN(Cc2cc(F)c3nc(N4CCN(CC(F)(F)F)CC4)ncc3c2)C[C@H]1Oc1ccc2c(c1)CN([C@H]1CCC(=O)NC1=O)C2=O [Example 35, (3S)-3-(5-{[(3S,4S)-1-({8-fluoro-2-[4-(2,2,2-trifluoroethyl)piperazin-1-yl]quinazolin-6-yl}methyl)-4-(methoxymethyl)pyrrolidin-3-yl]oxy}-1-oxo-2,3-dihydro-1H-isoindol-2-yl)piperidine-2,6-dione]	1	28.1	8.70	10.0	7.48	16.7		
COC[C@@H]1CN(Cc2cc(F)c3nc(C4CN(C(C)=O)C4)ccc3c2)C[C@H]1Oc1ccc2c(c1)CN([C@H]1CCC(=O)NC1=O)C2=O [Example 36, (3S)-3-(5-{[(3S,4S)-1-{[2-(1-acetylazetidin-3-yl)-8-fluoroquinolin-6-yl]methyl}-4-(methoxymethyl)pyrrolidin-3-yl]oxy}-1-oxo-2,3-dihydro-1H-isoindol-2-yl)piperidine-2,6-dione]	9	30.2	8.05	10.5	6.85	32.4		
COC[C@@H]1CN(Cc2cc(F)c3nc(C4CN(CC(F)(F)F)C4)ccc3c2)C[C@H]1Oc1ccc2c(c1)CN([C@H]1CCC(=O)NC1=O)C2=O [Example 37, (3S)-3-(5-{[(3S,4S)-1-({8-fluoro-2-[1-(2,2,2-trifluoroethyl)azetidin-3-yl]quinolin-6-yl}methyl)-4-(methoxymethyl)pyrrolidin-3-yl]oxy}-1-oxo-2,3-dihydro-1H-isoindol-2-yl)piperidine-2,6-dione]		30.1	9.00	11.0	6.91	6.3		
COC[C@@H]1CN(Cc2cc3ccc(C4CCN(CC(F)(F)F)CC4)cc3cn2)C[C@H]1Oc1ccc2c(c1)CN([C@H]1CCC(=O)NC1=O)C2=O [Example 38, (3S)-3-(5-{[(3S,4S)-4-(methoxymethyl)-1-({7-[1-(2,2,2-trifluoroethyl)piperidin-4-yl]isoquinolin-3-yl}methyl)pyrrolidin-3-yl]oxy}-1-oxo-2,3-dihydro-1H-isoindol-2-yl)piperidine-2,6-dione]	1	28.0		9.8	7.72	21.6		
